“Also recorded” adds a separate entry of the source.
Key:
G1E-ER-GATA-1 cells = test: 5-ALA rescue of heme biosynthesis, qRT-PCR of zinc transporter genes; type: cell-based, murine; conditions: 1 mM 5-ALA to bypass ALAS-2 and rescue heme biosynthesis; FIG. 3B
Method: Cell culture. G1E-ER-GATA-1 cells were cultured in Iscove's modified Dulbecco's medium (IMDM; Gibco) containing 15% FBS (Gemini), 1% penicillin-streptomycin (Gemini), 2 U/ml erythropoietin (Amgen), 120 nM monothioglycerol (Sigma), and 0.6% conditioned medium from a Kit ligand-producing CHO cell line, and 1 μg/ml puromycin (Gemini). ER-GATA-1 activity was induced by adding 1 μM β-estradiol (Steraloids) to media. To rescue heme synthesis, 1 mM 5-aminolevulinic acid hydrochloride (5-ALA; Sigma) was added to media.
(§1) qRT-PCR. Total RNA was purified from 0.4-2×10^6 cells with TRIzol® (Life Technologies). RNA was treated with DNase I (Life Technologies) for 15 min at room temperature. DNase I was inactivated by EDTA and heating at 65° C. for 10 min. DNase I-treated RNA was incubated with 125 ng of a 5:1 mixture of oligo (dT) primers and random hexamer at 68° C. for 10 min. RNA/primers were incubated with Moloney MLV reverse transcriptase (Life Technologies), 10 mM DTT (Life Technologies), RNAsin® (Promega), and 0.5 mM deoxynucleoside triphosphates at 42° C. for 1 h, and then heat inactivated at 98° C. for 5 min. Real-time PCR reactions were conducted with Power SYBR® Green Master Mix (Applied Biosystems) using ViiA™ 7 Real-Time PCR system (Applied Biosystems). Primer sequences are described in Table 1.

[1] = tested on: mononuclear cells from G-CSF-mobilized peripheral blood; test: Heme quantitation after succinylacetone in human erythroid differentiation culture; type: cell-based; conditions: succinylacetone during the last four days of culture; day 20
Method: (§2) Primary human mononuclear cells were isolated from G-CSF-mobilized peripheral blood using Histopaque® (Sigma). Cells were maintained in StemSpan™ SFEM medium (Stem Cell Technologies) supplemented with 1×CC100 cytokine mix (Stem Cell Technologies) for 4 days. […]
Heme quantitation. […] Electronic absorption spectra of cleared lysates were recorded on a Varian Cary 4 Bio spectrophotometer, and the oxyhemoglobin concentration of each cleared lysate was calculated using extinction coefficients at 542 nm and 577 nm for human oxyhemoglobin monomers. Total heme in each cleared lysate was determined for two technical replicates using the pyridine hemochrome assay in which 200 μl of a stock solution of 0.1 N NaOH and 33% (v/v) pyridine was combined with 100 μl of the cleared lysate. Upon addition of 2-5 mg of sodium dithionite, electronic absorption spectra were recorded, and total heme concentrations were calculated using known extinction coefficients of the ferrous bis(pyridine) protoheme complex at 525 nm and 556 nm as is known in the art.

[2] = tested on: mononuclear cells from G-CSF-mobilized peripheral blood; test: Cellularity after succinylacetone (flow cytometry, Wright-Giemsa staining); type: cell-based, human; conditions: succinylacetone during the last four days of culture
Method: as §2
(§3) Flow cytometry. For intracellular zinc quantitation in mouse cells, cells were washed twice with PBS and incubated with 1 l/ml Ghost Dye™ Red 780 (TONBO Biosciences) for 30 min at 4° C. […] Cells were then washed twice with PBS and analyzed. […] Cells were then washed twice with PBS and analyzed. For intracellular zinc quantitation in human cells, cells were washed twice with HBSS and incubated with HBSS containing 1 μM FluoZin™-3 AM, 0.02% Pluronic® F-127, PE-conjugated anti-human CD71 (0.024 μg in 100 μl, eBioscience, 12-0719-42), and APC-conjugated anti-human CD235a (0.006 μg in 100 μl, eBioscience 17-9987-42) for 30 min at room temperature. […] Cells were then washed twice with PBS, stained with DAPI, and analyzed. Samples were analyzed using a BD LSR II (BD Biosciences). […]

[3] = tested on: mononuclear cells from G-CSF-mobilized peripheral blood; test: qRT-PCR of gene expression after succinylacetone in human erythroid differentiation culture; type: cell-based; conditions: succinylacetone vs no treatment, day 19 and 20
Method: Primary human mononuclear cells were isolated from G-CSF-mobilized peripheral blood using Histopaque® (Sigma). Cells were maintained in StemSpan™ SFEM medium (Stem Cell Technologies) supplemented with 1×CC100 cytokine mix (Stem Cell Technologies) for 4 days. To induce differentiation, cells were cultured in basal differentiation media [IMDM containing 15% FBS, 2 mM L-glutamine, 1% BSA (Sigma), 500 μg/ml holo human transferrin (Sigma), and 10 [μg/ml insulin (Sigma)] supplemented with 1 μM dexamethasone (Sigma), 1 μM β-estradiol (Steraloids), 5 ng/ml IL-3, 100 ng/ml SCF, and 6 U/ml erythropoietin (Amgen) for 5 days, followed by four days in basal differentiation media supplemented with 50 ng/ml SCF and 6 U/ml erythropoietin and then seven days in basal differentiation media containing 2 U/ml erythropoietin.
as §1

[4] = tested on: lineage-negative fetal liver-derived hematopoietic precursors; test: Zinc chelation with TPEN and ZnCl2 add-back, flow cytometry (FluoZin-3, live/dead, CD71, Ter119); type: cell-based, murine
Method: (§4) Primary erythroid precursors from E14.5 murine fetal livers were cultured in StemPro®-34 (Gibco) supplemented with 10% nutrient supplement (Gibco), 1×L-glutamine (Cellgro), 1% penicillin-streptomycin (Gemini), 0.1 mM monothioglycerol (Sigma), 1 NM dexamethasone (Sigma), 0.5 U/ml erythropoietin (Amgen), and 1% conditioned medium from a Kit ligand-producing CHO cell line (expansion culture). To chelate zinc, 10 NM N,N,N′,N′-Tetrakis(2-pyridylmethyl)ethylenediamine (TPEN, Sigma, P4413) was added to the media, and 20 NM ZnCl2 (Fisher Scientific) was added back. After two days, cells were differentiated in IMDM (Gibco) containing 10% FBS (Gemini), 10% plasma-derived serum (PDS; Animal Technologies), 5% protein-free hybridoma medium II (PFHM II; Gibco), 1% penicillin-streptomycin (Gemini), 0.1 mM monothioglycerol (Sigma) and 6 U/ml of erythropoietin (Amgen).
Flow cytometry. For intracellular zinc quantitation in mouse cells, cells were washed twice with PBS and incubated with 1 l/ml Ghost Dye™ Red 780 (TONBO Biosciences) for 30 min at 4° C. Cells were washed once with PBS containing 2% FBS and twice with HBSS, and treated with HBSS containing 1 μM FluoZin™-3 AM (Invitrogen), 0.02% Pluronic® F-127 (Invitrogen), BV421-conjugated anti-mouse CD71 (0.2 μg in 100 μl, Biolegend, 113813), and APC-conjugated anti-mouse Ter119 (0.2 μg in 100 μl, Biolegend, 116212) for 30 min at room temperature. Cells were washed once with HBSS and incubated for 15 min at room temperature. Cells were then washed twice with PBS and analyzed. […] Cells were then washed twice with PBS and analyzed. For intracellular zinc quantitation in human cells, cells were washed twice with HBSS and incubated with HBSS containing 1 μM FluoZin™-3 AM, 0.02% Pluronic® F-127, PE-conjugated anti-human CD71 (0.024 μg in 100 μl, eBioscience, 12-0719-42), and APC-conjugated anti-human CD235a (0.006 μg in 100 μl, eBioscience 17-9987-42) for 30 min at room temperature. […] Cells were then washed twice with PBS, stained with DAPI, and analyzed. Samples were analyzed using a BD LSR II (BD Biosciences). […]

Slc30a1 mRNA = test: shRNA-mediated knockdown, qRT-PCR of Slc30a1 mRNA; type: cell-based, mouse; conditions: off-target check
Method: as §4
(§5) qRT-PCR. Total RNA was purified from 0.4-2×10^6 cells with TRIzol® (Life Technologies). RNA was treated with DNase I (Life Technologies) for 15 min at room temperature. DNase I was inactivated by EDTA and heating at 65° C. for 10 min. DNase I-treated RNA was incubated with 125 ng of a 5:1 mixture of oligo (dT) primers and random hexamer at 68° C. for 10 min. […]

[5] = tested on: lineage-negative hematopoietic precursors (E14.5); test: Intracellular zinc (FluoZin-3 flow cytometry) in shRNA knockdown cells; type: cell-based, murine
Method: (§6) Primary erythroid precursors from E14.5 murine fetal livers were cultured in StemPro®-34 (Gibco) supplemented with 10% nutrient supplement (Gibco), 1×L-glutamine (Cellgro), 1% penicillin-streptomycin (Gemini), 0.1 mM monothioglycerol (Sigma), 1 NM dexamethasone (Sigma), 0.5 U/ml erythropoietin (Amgen), and 1% conditioned medium from a Kit ligand-producing CHO cell line (expansion culture). To chelate zinc, 10 NM N,N,N′,N′-Tetrakis(2-pyridylmethyl)ethylenediamine (TPEN, Sigma, P4413) was added to the media, and 20 NM ZnCl2 (Fisher Scientific) was added back. […]
as §3

[6] = tested on: lineage-negative hematopoietic precursors (E14.5); test: Thiazole orange (TO) discrimination of nucleated erythroblasts and enucleated progeny in shRNA knockdown cells; type: cell-based, murine; conditions: expanded 2 days, differentiated 3 days
Method: as §6, §3

Slc39a8 mRNA = test: shRNA-mediated knockdown, qRT-PCR of Slc39a8 mRNA; type: cell-based, mouse; conditions: Luciferase shRNA as control
Method: as §4, §5

[7] = tested on: lineage-negative hematopoietic precursors (E14.5); test: Erythroid populations (CD71, Ter119, FSC-A flow cytometry) in shRNA knockdown cells; type: cell-based, murine; conditions: day 5
Method: as §6, §3

`Cl.NCC(=O)CCC(=O)O` [5-ALA, 5-aminolevulinic acid hydrochloride] was tested, and the Slc30a1 expression (G1E-ER-GATA-1 cells) was “increased”.
With `CC(=O)CC(=O)CCC(=O)O` [Succinylacetone, succinylacetone] the “decrease of heme in oxyhemoglobin” value [1] was 3.4 fold, the “decrease of total heme” value [1] was 2.9 fold and the cellularity [2] was “did not impact”. For the same compound, the ACTB expression [3] was “unaffected”, the HBA1 expression [3] was “reduced” and the HBB expression [3] was “reduced”. The SLC30A1 expression [3] was “reduced”.
In the case of `c1ccc(CN(CCN(Cc2ccccn2)Cc2ccccn2)Cc2ccccn2)nc1` [TPEN, N,N,N′,N′-Tetrakis(2-pyridylmethyl)ethylenediamine], the live cell population ([4]; 10 NM TPEN in expansion culture, day 3) is reported as “considerably decreased” and the “intracellular zinc levels in erythroid precursors of varying maturation stage” value ([4]; 10 NM TPEN in expansion culture, FluoZin-3 MFI) is reported as “reduced”.
For `[Cl-].[Cl-].[Zn+2]` [ZnCl2], the “effect of adding ZnCl2 to the media on the actions of TPEN” value ([4]; 10 NM TPEN, 20 NM ZnCl2 added back) was “negated the actions of TPEN”.
With “TGATAATTGTCACTGACAG (listed as DNA, chemistry not fully specified) [shRNAs targeting Slc39a8, retrovirus-expressed shRNA against mouse zinc importer Slc39a8]” the “Slc30a1 mRNA levels upon Slc39a8 loss” value (Slc30a1 mRNA) was “did not impact”, the “intracellular zinc in all (more mature) populations” value ([5]; erythroid differentiation culture, day 5) was “no effect; also recorded: did not alter” and the “decrease of intracellular zinc in R3 cells” value ([5]; expansion culture, day 2) was 3.3 fold. The “cell populations (CD71/TO)” value [6] was “did not influence”, the “downregulation of Slc39a8 mRNA” value (Slc39a8 mRNA; day five (expanded two days, differentiated three days)) was 71% and the “downregulation of Slc39a8 mRNA” value (Slc39a8 mRNA; day two (expanded for two days)) was 86%. The cellularity [7] was “did not impact”.

— patent publication US20190270992A1, “METHODS OF CONTROLLING RED BLOOD CELL PRODUCTION” (WISCONSIN ALUMNI RESEARCH FOUNDATION, priority 2018, published 2019)
